Tests used:
PKCζ = assay: Western blot of PKC isoform expression in cytosol and membrane; type: cell-based, human; conditions: HepG2, 24 h incubation
Experimental: To further determine whether compound 7 and ISJ represent potential candidates for selective PKC expression inhibitors against hepatoma, the expression of PKC isoforms in HepG2 cells was characterized by western blotting. After 24 h of incubation with GFX, GO, ISJ and compound 7 at the indicated concentrations, PKC proteins from the cytosol and membrane of HepG2 cells were evaluated. ISJ and compound 7 treatments reduced both the cytosol and cell membrane expression of PKCζ.
The total membrane and cytosolic proteins were extracted using a Membrane and Cytosol Protein Extraction Kit (Beyotime). Extracted proteins from cells or animal tissues were separated by SDS-PAGE and transferred to polyvinylidene difluoride (PVDF) membranes (Bio-Rad). The PVDF membranes were blocked with 5% nonfat milk and incubated with primary antibodies overnight, followed by incubation with a donkey anti-rabbit or anti-mouse secondary antibody (IRDye 800, LI-COR, Biosciences). The images were captured using the Odyssey Infrared Imaging System (LI-COR, Biosciences), according to the manufacturer's instructions. The intensity was quantitative with Quantity One software (Bio-Rad). To ensure equal protein loading, each membrane was stripped and reprobed with an anti-β-actin antibody. All experiments were repeated independently no less than three times.

PKCδ = biological target: T1, PKCδ (Homo sapiens, UniProt Q05655); assay: Cell-based pull-down assay, PKCδ; type: binding; conditions: HepG2 lysates
T1 construct: Endogenous cPKC (PKCα) and nPKC (PKCδ, PKCε and PKCμ) in HepG2 lysates were pulled down; endogenous in cells; host or cells: HepG2
Experimental: To identify whether ISJ and compound 7 target PKC in cells, we performed pull-down experiments using ISJ- and compound 7-coupled Sepharose beads with HepG2 cell lysates. Endogenous cPKC (PKCα) and nPKC (PKCδ, PKCε and PKCμ) in HepG2 lysates were pulled down by ISJ-coupled CNBr-activated Sepharose 4B beads (Fig. 5a).
The control beads were prepared by incubating the beads with DMSO. Proteins (500 μg) from lysed HepG2 cells were mixed with either the control beads, compound 7-coupled beads, or ISJ-coupled beads (100 μL) in reaction buffer [50 mM Tris (pH 7.5), 5 mM EDTA, 150 mM NaCl, 1 mM DTT, 0.01% NP-40, 2 μg/mL BSA, 1 mM PMSF, 1% protease inhibitor mixture]. After incubation with gentle rocking overnight at 4 °C, the beads were washed 5 times with washing buffer [50 mM Tris (pH 7.5), 5 mM EDTA, 150 mM NaCl, 1 mM DTT, 0.01% NP-40, 1 mM PMSF], and binding was visualized by western blotting.

HepG2 cells [1] = assay: Apoptosis assay, Annexin V-FITC/PI flow cytometry; type: cell-based, human; conditions: 48 h
Experimental: To further explore the potential mechanisms of the antiproliferative effects induced by compound 7 and ISJ, Annexin V-FITC/PI double staining was performed to quantify cellular apoptosis by flow cytometry. HepG2 cells were cultured for 48 h in the absence or presence of compound 7 or ISJ at different concentrations (5 or 15 μM).
HepG2 cells were seeded in six-well plates (5 × 10^5 cells/mL) for 24 h and then treated with various amounts of the compounds or 1% DMSO (as control). After 48 h, the cells floating in the medium were collected, and the adherent cells were detached with 0.05% trypsin, washed twice with cold PBS, and centrifuged at 1000 rpm for 5 min at 4 °C. Subsequently, HepG2 cells were gently resuspended in the binding buffer. Thereafter, the cells were stained using the Annexin V-FITC/PI apoptosis detection kit (BD Biosciences, San Jose, CA, USA). After incubation at room temperature for 15 min in the dark, the apoptotic cells were immediately analyzed by flow cytometry (FACS Calibur).

HepG2 cells [2] = assay: Matrigel invasion assay; type: cell-based, human; conditions: 10 μM, 24 h
Experimental: Cell migration and invasion potencies were studied using wound healing and Matrigel invasion assays. The wound healing assay was performed by scratching the cell surface with a 10 μL pipette tip. Then, the cells were treated with compound 7 and ISJ (10 μM) and incubated for 24 h before being photographed under a microscope (DMI3000 B, Leica). Wound closure was evaluated using ImageJ software. Invasion through a Matrigel-coated filter was measured in transwell chambers (Corning Costa) as described previously, with minor modifications. Briefly, HepG2 Cells (2 × 10^5/well) were suspended in serum-free medium and added to the upper chamber of the Matrigel plate. FBS (10%) was used as the chemoattractant in the lower chamber. After incubation for 24 h, the non-invading cells were removed from the upper surface of the insert membrane with a cotton swab. The invading cells were fixed with methanol and stained with Giemsa (Sigma). Cells in five randomly selected fields were photographed, and the numbers of cells that crossed the membrane were counted.

T1 sequence (Q05655 whole entry): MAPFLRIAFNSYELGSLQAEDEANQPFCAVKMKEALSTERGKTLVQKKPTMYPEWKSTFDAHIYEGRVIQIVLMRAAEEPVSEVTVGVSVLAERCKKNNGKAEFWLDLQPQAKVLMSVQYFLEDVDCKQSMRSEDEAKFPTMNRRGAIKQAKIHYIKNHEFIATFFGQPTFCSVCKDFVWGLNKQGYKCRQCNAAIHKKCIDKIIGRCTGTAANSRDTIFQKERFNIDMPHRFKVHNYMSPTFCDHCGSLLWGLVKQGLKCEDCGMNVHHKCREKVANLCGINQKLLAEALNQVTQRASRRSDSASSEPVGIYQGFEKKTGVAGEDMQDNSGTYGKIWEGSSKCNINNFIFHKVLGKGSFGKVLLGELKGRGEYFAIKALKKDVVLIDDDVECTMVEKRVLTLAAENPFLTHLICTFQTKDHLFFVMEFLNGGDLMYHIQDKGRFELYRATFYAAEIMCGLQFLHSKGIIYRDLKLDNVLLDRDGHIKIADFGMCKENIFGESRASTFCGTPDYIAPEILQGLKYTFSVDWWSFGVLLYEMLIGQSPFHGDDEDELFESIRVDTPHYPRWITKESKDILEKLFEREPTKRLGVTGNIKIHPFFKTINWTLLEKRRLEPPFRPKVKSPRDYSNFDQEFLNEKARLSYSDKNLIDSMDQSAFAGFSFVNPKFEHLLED

For Isojacareubin [ISJ], the “PKCζ expression in cytosol and cell membrane” value (PKCζ) was “significantly decreased”, the “pull-down of endogenous PKCδ by compound-coupled Sepharose 4B beads” value (PKCδ) was “pulled down” and the “number of apoptotic cells compared to the control group” value (HepG2 cells [1]; 5 μM) was “did not alter”. The “percentage of apoptotic cells” value (HepG2 cells [1]; 15 μM) was “increased significantly” and the “inhibition of invasiveness compared to control” value (HepG2 cells [2]) was 76%.

Source: publication PMC4526861, “Inhibition of protein kinase C by isojacareubin suppresses hepatocellular carcinoma metastasis and induces apoptosis in vitro and in vivo” (Scientific Reports, 2015)
